Source: patent publication EP0938474B1, “CYCLOPROPYLINDOLE COMPOUNDS AND THEIR USE AS PRODRUGS” (AUCKLAND UNISERVICES LIMITED, priority 1996, dated 1998)

Columns and labels:
[1] = system: human ovarian NR- (wild-type) line SKOV3; assay: Cytotoxicity in untransfected control cells (NR-), nitroreductase activation test; type: cell-based; conditions: SK-OV-3, IC50, unit inferred, read-out: Human ovarian lines NR-
From the text: (§1) Compounds of the invention were further tested against human cell lines (NR+ in Table 3) transfected with a gene encoding a bacterial nitroreductase (NR) enzyme to test for activation of compounds of the invention with NR. Untransfected control cells (NR- in Table 3) were used as controls. The cells used were the human colon NR-(wild-type) line WIDR and its transfected NR+ counterpart WC14.10; and the human ovarian NR- (wild-type) line SKOV3 together with its NR+ (transfected) counterpart SC3.2. The results are shown in Table 3, which also indicates the ratios of IC50s. These are intra-experiment values, and may differ slightly from those calculated from the given NR- and NR+ values.

[2] = system: human colon NR-(wild-type) line WIDR; assay: as above; type: cell-based; conditions: IC50, unit inferred, read-out: Human colon lines NR-
From the text: as §1

[3] = system: SC3.2; assay: Cytotoxicity in cells transfected with bacterial nitroreductase (NR+); type: cell-based; conditions: Homo sapiens, SK-OV-3; SC3.2 (NR+ transfected counterpart of SKOV3); IC50, unit inferred; read-out: Human ovarian lines NR+
From the text: as §1

[4] = system: WC14.10; assay: as above; type: cell-based; conditions: Homo sapiens; WC14.10 (NR+ transfected counterpart of WIDR); IC50, unit inferred; read-out: Human colon lines NR+
From the text: as §1

[5] = system: AA8; assay: Cytotoxicity (growth inhibition), 4 h drug exposure, methylene blue staining; type: cell-based; conditions: Cricetulus griseus, CHO-AA8; AA8 wild type rodent cell line; 4 hours exposure, then three days incubation
Procedure: (§2) Compounds of the invention were tested for cytotoxicity against four different cell lines, all of which are widely available in the art. AA8 is a wild type rodent cell line. UV4 is a mutant AA8 cell line defective in excision repair, and hypersensitive to many alkylating agents. EMT6 is a widely-used rodent line. SKOV is a human ovarian cell line.
(§3) Cell culture assays were performed in 96-well microtitre trays. Compounds of the invention were added in culture medium, using serial two-fold dilutions to provide duplicate cultures at five different concentrations for each of eight drugs (plus eight controls) per tray. Drugs were dissolved in water or DMSO immediately prior to addition to the cell culture. After 4 hours, drugs were removed by washing cultures three times with fresh medium, and the trays were incubated for a futher three days. Cell density was then determined by staining with methylene blue as described previously (Finlay, G. J., et al, Anal. Biochm. 1984, 139, 272-277) and the IC50 was calculated as the drug concentration providing 50% inhibition of growth relative to the controls.

[6] = system: EMT6; assay: as above; type: cell-based; conditions: Mus musculus; EMT6 rodent line; 4 hours exposure, then three days incubation
Procedure: as §2, §3

[7] = system: SKOV3; assay: as above; type: cell-based; conditions: SK-OV-3; human ovarian cell line; 4 hours exposure, then three days incubation
Procedure: as §2, §3

[8] = system: UV4; assay: as above; type: cell-based, rodent; conditions: Cricetulus griseus; UV4 mutant AA8 line defective in excision repair; 4 hours exposure, then three days incubation
Procedure: as §2, §3

[9] = background statement, test system not given; cited from earlier work

SMILES | IC50 [1] [nM] | IC50 [2] [nM] | IC50 [3] [nM] | IC50 [4] [nM] | IC50 [5] [nM] | IC50 [6] [nM] | IC50 [7] [nM] | IC50 [8] [nM] | IC50's [9]
COc1cc2cc(C(=O)N3CC(CCl)c4c3cc([N+](=O)[O-])c3ccccc43)[nH]c2c(OC)c1OC (racemic) [14a] | 1600 | 1300 | 140 | 380 | – | – | – | – | –
COc1cc2cc(C(=O)N3C[C@H](CCl)c4c3cc([N+](=O)[O-])c3ccccc43)[nH]c2c(OC)c1OC [14aR] | > 20000 | > 20000 | 300 | > 20000 | – | – | – | – | –
COc1cc2cc(C(=O)N3C[C@@H](CCl)c4c3cc([N+](=O)[O-])c3ccccc43)[nH]c2c(OC)c1OC [14aS] | 400 | 350 | 40 | 90 | – | – | – | – | –
O=C(c1cc2cc([N+](=O)[O-])ccc2[nH]1)N1CC(CCl)c2c1cc([N+](=O)[O-])c1ccccc21 (centres unmarked) [14b, 1-(chloromethyl)-5-nitro-3-[(5-nitroindol-2-yl)carbonyl]-1,2-dihydro-3H-benz[e]indole] | 400 | 390 | 390 | 210 | – | – | – | – | –
CC(=O)Nc1ccc2[nH]c(C(=O)N3CC(CCl)c4c3cc([N+](=O)[O-])c3ccccc43)cc2c1 (centres unmarked) [14c, 3-[[5-(acetylamino)indol-2-yl]carbonyl]-1-(chloromethyl)-5-nitro-1,2-dihydro-3H-benz[e]indole] | 4300 | 1600 | 250 | 360 | – | – | – | – | –
COc1ccc2[nH]c(C(=O)N3CC(CCl)c4c3cc([N+](=O)[O-])c3ccccc43)cc2c1 (centres unmarked) [14d, 1-(chloromethyl)-3-[(5-methoxyindol-2-yl)carbonyl]-5-nitro-1,2-dihydro-3H-benz[e]indole] | 580 | 740 | 150 | 290 | – | – | – | – | –
CN(C)CCOc1ccc2[nH]c(C(=O)N3CC(CCl)c4c3cc([N+](=O)[O-])c3ccccc43)cc2c1 (centres unmarked) [14e, 1-(chloromethyl)-3-[[5-[2-(dimethylamino)-ethoxy]indol-2-yl]carbonyl] -5-nitro-1,2-dihydro-3H-benz [e] indole] | 1000 | 370 | 90 | 130 | – | – | – | – | –
CCCC(=O)Nc1cc(/C=C/C(=O)N2CC(CCl)c3c2cc([N+](=O)[O-])c2ccccc32)n(C)c1 (centres unmarked) [14i, 3-[(E)-4-(butyrylamino)-1-methyl-2-pyrroleacryloyl]-1-(chloromethyl)-5-nitro-1,2-dihydro-3H-benz [e] indole] | 4300 | 2200 | 390 | 600 | – | – | – | – | –
COc1cccc(/C=C/C(=O)N2CC(CCl)c3c2cc([N+](=O)[O-])c2ccccc32)c1 (centres unmarked) [14l, 1-(chloromethyl)-3-[(E)-3-methoxycinnamoyl]-5-nitro-1,2-dihydro-3H-benz[e]iadole] | 130 | 140 | 40 | 80 | – | – | – | – | –
COc1cc2cc(C(=O)N3CC(COS(C)(=O)=O)c4c3cc([N+](=O)[O-])c3ccccc43)[nH]c2c(OC)c1OC (centres unmarked) [14o, 1-[(methanesulfonyloxy)methyl]-5-nitro-3-[(5,6,7-trimethoxyindol-2-yl)carbonyl]-1,2-dihydro-3H-benz[e]indole] | 410 | 410 | 50 | 60 | – | – | – | – | –
COc1cc2cc(C(=O)N3CC(CCl)c4c3cc(NC(=O)OCc3ccc([N+](=O)[O-])cc3)c3ccccc43)[nH]c2c(OC)c1OC (centres unmarked) [15r, 1-(chloromethyl)-5-[(4-nitrobenzyloxycarbonyl)amino]-3-[(5,6,7-trimethoxyindol-2-yl)carbonyl]-1,2 - dihydro-3H-benz[e] indole] | 62 | 390 | 5.4 | 12 | – | – | – | – | –
COC(=O)c1cc2c3c(cc(N)c2[nH]1)N(C(=O)c1cc2cc(OC)c(OC)c(OC)c2[nH]1)CC3CCl (centres unmarked) [32a, methyl 5-amino-1-(chloromethyl)-3-[(5,6,7-trimethoxyindol-2-yl)carbonyl]-1,2-dihydro-3H-pyrrolo[3,2-e]indole-7-carboxylate] | – | – | – | – | 17 | 5.6 | 14 | 1.7 | –
CNc1cc2c(c3cc(C(=O)OC)[nH]c13)C(CCl)CN2C(=O)c1cc2cc(OC)c(OC)c(OC)c2[nH]1 (centres unmarked) [32b, methyl 1-(chloromethyl)-5-methylamino-3-[(5,6,7-trimethoxyindol-2-yl)carbanyl]-1,2-dihydro-3H-pyrrolo[3,2-e]indole-7-carboxylate] | – | – | – | – | 2.4 | 0.8 | 1.9 | 0.7 | –
COC(=O)c1cc2c3c(cc(N(C)C)c2[nH]1)N(C(=O)c1cc2cc(OC)c(OC)c(OC)c2[nH]1)CC3CCl (centres unmarked) [32c, methyl 1-(chloromethyl)-5-dimethylamino-3-[(5,6,7-trimethoxyindol-2-yl)carbonyl]-1,2-dihydro-3H-pyrrolo[3,2-e]indole-7-carboxylate] | – | – | – | – | 12 | 5.2 | 12 | 3.3 | –
COC(=O)c1cc2c3c(cc(NC(=O)OCc4ccc([N+](=O)[O-])cc4)c2[nH]1)N(C(=O)c1cc2cc(OC)c(OC)c(OC)c2[nH]1)CC3CCl (centres unmarked) [32d, methyl 1-(chloromethyl) -5-[(4-nitrobenzyloxycarbonyl) -amino] -3-[(5,6,7-trimethoxyindol-2-yl)carbonyl]-1,2-dihydro-3H-pyrrolo[3,2-e]indole-7-carboxylate] | 1100 | 490 | 270 | 260 | – | – | – | – | –
COc1c(O)c2c(c3cc(C(=O)N4CCc5c4c(O)c(OC)c4[nH]c(C(=O)N6CC7CC78C6=CC(=O)c6[nH]cc(C)c68)cc54)[nH]c13)CCN2C(N)=O (centres unmarked) [CC-1065] | – | – | – | – | – | – | – | – | low pM range
COC(=O)c1cc2c3c(cc([N+](=O)[O-])c2[nH]1)N(C(=O)c1cc2cc(OC)c(OC)c(OC)c2[nH]1)CC3CCl (centres unmarked) [compound 31, methyl 1-(chloromethyl)-5-nitro-3-[(5,6,7-trimethoxyindol-2-yl)carbonyl]-1,2-dihydro-3H-pyrrolo[3,2-e]indole-7-carboxylate] | 60 | 400 | 5 | 10 | – | – | – | – | –
